Test results as given in patent US20260207578A1, “COMPOUND BASED ON SULFUR/OXYGEN SUBSTITUTED GLUTARIMIDE-BASED ISOINDOLINONE SKELETON AND USE THEREOF” (Gluetacs Therapeutics (Shanghai) Co., LTD., priority 2022, published 2026).

Experiments:
[1] = molecular target: T1, human Cereblon WT GST-tagged protein (Homo sapiens, UniProt Q96SW2); experiment: CRBN-binding affinity, HTRF (CEREBLON BINDING kit); settings: displacement of Thalidomide-Re reagent, 3 hours at room temperature
T1 construct: purchased CISBIO 64BDCRBNPEH
T1 sequence (Q96SW2 whole entry): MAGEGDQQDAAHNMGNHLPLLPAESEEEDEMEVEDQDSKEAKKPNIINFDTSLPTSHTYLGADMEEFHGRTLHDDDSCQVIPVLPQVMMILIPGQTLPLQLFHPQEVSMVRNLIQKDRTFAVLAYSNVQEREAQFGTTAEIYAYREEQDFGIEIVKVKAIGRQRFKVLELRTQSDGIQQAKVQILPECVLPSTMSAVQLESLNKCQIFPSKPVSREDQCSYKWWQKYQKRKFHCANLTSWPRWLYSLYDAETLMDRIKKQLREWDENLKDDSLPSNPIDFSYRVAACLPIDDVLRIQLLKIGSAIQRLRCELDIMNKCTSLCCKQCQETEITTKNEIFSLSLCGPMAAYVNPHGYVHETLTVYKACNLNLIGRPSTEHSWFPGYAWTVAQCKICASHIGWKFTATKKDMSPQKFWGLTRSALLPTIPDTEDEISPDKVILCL
How it was run: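 Compounds displace a thalidomide-Re tracer from GST-tagged human Cereblon WT, detected with an Eu-labelled anti-GST antibody by time-resolved fluorescence. Signal at 620 nm was normalised against solvent and blank controls.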

IKZF1 = molecular target: T2, IKZF1 (Homo sapiens, UniProt Q13422+Q96SW2); experiment: Western-blot assay, substrate protein in hPBMCs; type: cell-based; settings: hPBMC cells, 24 hours, tested at 50 nM and 500 nM, table does not say which
T2 construct: endogenous in cells; host or cells: human PBMCs (Milecell Biotechnologies)
T2 sequence (Q13422 whole entry): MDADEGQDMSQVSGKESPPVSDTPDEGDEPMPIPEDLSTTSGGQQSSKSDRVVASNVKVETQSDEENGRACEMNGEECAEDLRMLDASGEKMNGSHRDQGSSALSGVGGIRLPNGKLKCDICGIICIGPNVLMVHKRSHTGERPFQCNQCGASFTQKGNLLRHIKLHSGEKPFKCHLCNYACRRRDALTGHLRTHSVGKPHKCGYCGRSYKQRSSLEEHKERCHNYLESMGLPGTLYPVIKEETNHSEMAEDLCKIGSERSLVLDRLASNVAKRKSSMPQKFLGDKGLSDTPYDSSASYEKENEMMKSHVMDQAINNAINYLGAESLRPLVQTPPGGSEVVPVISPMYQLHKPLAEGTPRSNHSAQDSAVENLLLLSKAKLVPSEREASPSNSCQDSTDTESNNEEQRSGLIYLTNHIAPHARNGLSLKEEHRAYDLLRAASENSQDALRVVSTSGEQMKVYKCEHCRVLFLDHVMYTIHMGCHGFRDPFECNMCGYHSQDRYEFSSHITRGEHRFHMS
T2 sequence (Q96SW2 whole entry): as the sequence (Q96SW2 whole entry) above
T2 sequence (Q16531 whole entry partner): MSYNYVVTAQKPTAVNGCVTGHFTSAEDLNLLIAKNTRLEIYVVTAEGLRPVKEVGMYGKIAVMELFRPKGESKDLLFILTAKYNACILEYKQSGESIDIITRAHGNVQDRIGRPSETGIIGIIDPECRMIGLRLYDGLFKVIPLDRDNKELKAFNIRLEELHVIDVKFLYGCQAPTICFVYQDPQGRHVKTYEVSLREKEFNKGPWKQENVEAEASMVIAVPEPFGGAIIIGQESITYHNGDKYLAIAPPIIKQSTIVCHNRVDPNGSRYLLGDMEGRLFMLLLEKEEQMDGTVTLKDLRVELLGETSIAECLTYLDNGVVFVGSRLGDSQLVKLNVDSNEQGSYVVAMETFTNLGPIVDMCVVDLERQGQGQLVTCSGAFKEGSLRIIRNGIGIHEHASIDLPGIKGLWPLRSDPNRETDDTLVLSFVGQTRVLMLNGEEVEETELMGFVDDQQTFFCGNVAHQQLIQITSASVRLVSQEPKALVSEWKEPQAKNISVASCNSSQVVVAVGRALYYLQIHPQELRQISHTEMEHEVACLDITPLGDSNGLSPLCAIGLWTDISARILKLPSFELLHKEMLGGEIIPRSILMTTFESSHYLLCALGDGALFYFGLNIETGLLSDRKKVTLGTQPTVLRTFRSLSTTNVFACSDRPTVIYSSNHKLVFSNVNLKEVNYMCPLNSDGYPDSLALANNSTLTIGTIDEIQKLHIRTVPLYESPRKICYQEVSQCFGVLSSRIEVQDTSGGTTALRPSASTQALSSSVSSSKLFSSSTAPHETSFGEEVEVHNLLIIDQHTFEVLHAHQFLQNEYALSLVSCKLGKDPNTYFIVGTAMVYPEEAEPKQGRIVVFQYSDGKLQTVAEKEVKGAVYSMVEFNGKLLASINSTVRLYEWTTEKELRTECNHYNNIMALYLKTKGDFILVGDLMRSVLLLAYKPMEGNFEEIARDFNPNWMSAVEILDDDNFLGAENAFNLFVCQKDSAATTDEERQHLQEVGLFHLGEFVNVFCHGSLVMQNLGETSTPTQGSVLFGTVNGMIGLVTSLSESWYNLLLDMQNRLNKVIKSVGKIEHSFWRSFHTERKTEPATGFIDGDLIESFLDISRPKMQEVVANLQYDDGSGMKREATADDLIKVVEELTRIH
Protocol: The effect of the compounds of the present disclosure on the expression of target proteins in cells was detected using conventional Western blot analysis.
Human peripheral blood mononuclear cells (hPBMCs) at a density of 1×10^6 cells/mL were thawed according to the PBMC Recovery Protocol (Milecell Biotechnologies Inc, Shanghai). The cells were then treated with the compounds of the present disclosure (including the compounds listed in Tables 1 and 2, and the Examples A1-A20 and 1-116 compounds) at concentrations of 50 nM and 500 nM.
Controls included a negative control (DMSO) and a positive control (the commercial immunomodulatory drug lenalidomide), both processed following the identical experimental protocol as the compounds of the present disclosure. After 24 hours of compounds treatment, cells were harvested and lysed in RIPA protein lysate containing phosphatase inhibitors on ice for 30-60 min, followed by centrifugation. The supernatant was aspirated as the extracted total cell protein. The protein concentration of the supernatant was determined using the conventional BCA (Bicinchoninic Acid) assay. The supernatant was then mixed with 4× SDS sample loading buffer, denatured at 95° C. for 5 minutes, and then subjected to SDS-PAGE electrophoresis on a polyacrylamide gel. Proteins were then transferred to a nitrocellulose (NC) membrane, blocked at room temperature for 1-2 h, and processed for antibody incubation and detection according to the manufacturer's instructions (Cell Signaling Technology).
Half-Maximal Degradation Concentration value (the drug concentration required for degrading proteins by 50%, abbreviated as DC50) reads method: comparing the grayscale values of Western blot bands from drug-treated samples with those from blank DMSO-treated controls, and identifying the drug concentration range at which the grayscale value is half that of the DMSO-treated control bands.
DC50 values can be calculated using ImageJ software to measure grayscale values of Western blot bands from drug-treated samples. The concentration-response curve is fitted to estimate the drug concentration corresponding to half the grayscale value.
Target protein remaining (%) refers to the percentage of target protein remaining in hPBMC cells after treatment with protein degrader compounds.
Calculation method for protein remaining (%): Use ImageJ software to measure grayscale values of Western blot bands from drug (protein degrader)-treated samples. The grayscale value of drug-treated bands is divided by that of internal control protein bands, and the resulting quotient is normalized to obtain the relative percentage of remaining target protein after protein degrader treatment.
Target protein degradation rate (%)=100%−target protein remaining (%).

GSPT1 = molecular target: T3, GSPT1 (Homo sapiens, UniProt P15170+Q96SW2); experiment: Western-blot assay, substrate protein in hPBMCs; type: cell-based; settings: hPBMC cells, 24 hours, tested at 50 nM and 500 nM, table does not say which
T3 construct: endogenous in cells; host or cells: human PBMCs (Milecell Biotechnologies)
T3 sequence (P15170 whole entry): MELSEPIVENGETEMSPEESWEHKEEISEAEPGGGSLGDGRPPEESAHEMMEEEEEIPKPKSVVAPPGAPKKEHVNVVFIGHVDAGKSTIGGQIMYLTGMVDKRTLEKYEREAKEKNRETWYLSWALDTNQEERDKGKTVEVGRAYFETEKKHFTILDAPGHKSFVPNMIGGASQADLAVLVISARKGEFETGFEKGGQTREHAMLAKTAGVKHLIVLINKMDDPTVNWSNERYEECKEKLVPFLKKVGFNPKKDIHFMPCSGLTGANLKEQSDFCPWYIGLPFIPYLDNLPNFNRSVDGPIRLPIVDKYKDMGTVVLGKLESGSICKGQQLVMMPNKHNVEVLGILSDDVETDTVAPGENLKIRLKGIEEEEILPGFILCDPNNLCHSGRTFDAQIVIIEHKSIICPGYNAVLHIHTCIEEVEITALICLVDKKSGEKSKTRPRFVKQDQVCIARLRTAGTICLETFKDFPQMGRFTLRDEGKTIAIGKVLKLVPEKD
T3 sequence (Q96SW2 whole entry): as the sequence (Q96SW2 whole entry) above
T3 sequence (Q16531 whole entry partner): as the sequence (Q16531 whole entry partner) above
How it was run: (§1)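 Cellular protein levels after a 24 h degrader treatment of human PBMCs were assessed by Western blot densitometry relative to an internal control. Results are expressed as % remaining, % degraded, or DC50 versus DMSO-treated cells.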

Wee1 = molecular target: T4, Wee1 (Homo sapiens, UniProt P30291+Q96SW2); experiment: Western-blot assay, substrate protein in hPBMCs; type: cell-based; settings: hPBMC cells, 24 hours, tested at 50 nM and 500 nM, table does not say which
T4 construct: endogenous in cells; host or cells: human PBMCs (Milecell Biotechnologies)
T4 sequence (P30291 whole entry): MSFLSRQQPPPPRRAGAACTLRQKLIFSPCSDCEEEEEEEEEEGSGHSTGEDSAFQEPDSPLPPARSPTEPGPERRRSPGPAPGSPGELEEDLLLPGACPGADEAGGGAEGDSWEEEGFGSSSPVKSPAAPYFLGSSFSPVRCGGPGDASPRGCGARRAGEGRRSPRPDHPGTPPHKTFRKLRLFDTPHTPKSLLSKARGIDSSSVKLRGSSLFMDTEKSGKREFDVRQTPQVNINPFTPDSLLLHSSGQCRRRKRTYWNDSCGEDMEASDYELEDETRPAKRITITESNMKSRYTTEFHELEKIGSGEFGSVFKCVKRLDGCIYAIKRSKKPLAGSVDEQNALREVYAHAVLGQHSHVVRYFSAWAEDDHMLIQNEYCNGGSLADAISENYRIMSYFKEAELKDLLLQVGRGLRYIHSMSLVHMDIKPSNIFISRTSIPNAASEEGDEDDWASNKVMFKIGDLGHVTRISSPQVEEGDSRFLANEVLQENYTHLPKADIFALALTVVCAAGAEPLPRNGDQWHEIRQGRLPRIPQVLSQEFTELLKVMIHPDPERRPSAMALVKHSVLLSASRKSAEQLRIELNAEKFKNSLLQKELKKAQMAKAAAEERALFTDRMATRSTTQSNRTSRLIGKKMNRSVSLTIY
T4 sequence (Q96SW2 whole entry): as the sequence (Q96SW2 whole entry) above
T4 sequence (Q16531 whole entry partner): as the sequence (Q16531 whole entry partner) above
How it was run: as §1

IKZF2 = molecular target: T5, IKZF2 (Homo sapiens, UniProt Q96SW2+Q9UKS7); experiment: Western-blot assay, substrate protein in hPBMCs; type: cell-based; settings: hPBMC cells, 24 hours, tested at 50 nM and 500 nM, table does not say which
T5 construct: endogenous in cells; host or cells: human PBMCs (Milecell Biotechnologies)
T5 sequence (Q9UKS7 whole entry): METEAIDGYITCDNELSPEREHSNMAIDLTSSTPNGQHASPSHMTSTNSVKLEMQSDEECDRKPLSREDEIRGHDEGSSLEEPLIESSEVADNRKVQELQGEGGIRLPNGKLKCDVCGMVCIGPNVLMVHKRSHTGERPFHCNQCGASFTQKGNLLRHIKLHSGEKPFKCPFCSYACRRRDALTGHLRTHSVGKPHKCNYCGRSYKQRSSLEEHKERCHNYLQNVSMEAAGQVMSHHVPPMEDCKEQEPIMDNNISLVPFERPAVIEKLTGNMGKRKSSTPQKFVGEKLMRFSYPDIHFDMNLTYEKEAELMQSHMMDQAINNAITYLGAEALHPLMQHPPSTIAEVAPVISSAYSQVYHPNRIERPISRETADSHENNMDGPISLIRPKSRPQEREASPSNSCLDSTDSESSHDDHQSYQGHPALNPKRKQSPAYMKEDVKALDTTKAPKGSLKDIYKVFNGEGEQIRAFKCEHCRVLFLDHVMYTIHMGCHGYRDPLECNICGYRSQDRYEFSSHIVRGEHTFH
T5 sequence (Q96SW2 whole entry): as the sequence (Q96SW2 whole entry) above
T5 sequence (Q16531 whole entry partner): as the sequence (Q16531 whole entry partner) above
How it was run: as §1

CK1α = molecular target: T6, CK1α (Homo sapiens, UniProt P48729+Q96SW2); experiment: Western-blot assay, substrate protein in hPBMCs; type: cell-based; settings: hPBMC cells, 24 hours, tested at 50 nM and 500 nM, table does not say which
T6 construct: endogenous in cells; host or cells: human PBMCs (Milecell Biotechnologies)
T6 sequence (P48729 whole entry): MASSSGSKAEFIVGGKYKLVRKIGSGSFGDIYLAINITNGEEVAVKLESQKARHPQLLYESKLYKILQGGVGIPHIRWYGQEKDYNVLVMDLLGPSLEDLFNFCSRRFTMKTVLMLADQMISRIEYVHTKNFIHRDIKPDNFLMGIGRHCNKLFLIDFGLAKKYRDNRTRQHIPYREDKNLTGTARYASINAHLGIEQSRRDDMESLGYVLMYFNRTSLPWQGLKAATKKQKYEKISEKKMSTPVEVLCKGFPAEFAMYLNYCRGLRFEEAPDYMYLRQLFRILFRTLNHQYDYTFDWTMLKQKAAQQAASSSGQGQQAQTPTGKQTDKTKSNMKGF
T6 sequence (Q96SW2 whole entry): as the sequence (Q96SW2 whole entry) above
T6 sequence (Q16531 whole entry partner): as the sequence (Q16531 whole entry partner) above
How it was run: as §1

Structure (SMILES)	IC50 [1]	substrate protein remaining % (IKZF1)	substrate protein remaining % (GSPT1)	substrate protein remaining % (Wee1)	substrate protein remaining % (IKZF2)	substrate protein remaining % (CK1α)
CC1(C)CCC(C(=O)N2CC(Sc3ccc4c(c3)CN(C3CCC(=O)NC3=O)C4=O)C2)=C(c2ccc(Cl)cc2)C1 (centres unmarked) [GT-06137, 3-(5-((1-(4′-chloro-5,5-dimethyl-3,4,5,6-tetrahydro-[1,1′-biphenyl]-2-carbonyl)azetidin-3-yl)thio)-1-oxoisoindolin-2-yl)piperidine-2,6-dione]	500 to 1000 nM	A (0%≤ substrate protein remaining % ≤80%)	A (0%≤ substrate protein remaining % ≤80%)	A (0%≤ substrate protein remaining % ≤80%)		
O=C1CCC(N2Cc3cc(OC4CCN(Cc5ccccc5-c5ccc(Cl)cc5)CC4)ccc3C2=O)C(=O)N1 (centres unmarked) [GT-06193, 3-(5-((1-((4′-chloro-[1,1′-biphenyl]-2-yl)methyl)piperidin-4-yl)oxy)-1-oxoisoindolin-2-yl)piperidine-2,6-dione]	1000 to 1900 nM		A (0%≤ substrate protein remaining % ≤80%)	A (0%≤ substrate protein remaining % ≤80%)	A (0%≤ substrate protein remaining % ≤80%)	
O=C1CCC(N2Cc3cc(SC4CCN(C(c5ccccc5)c5ccccc5)C4)ccc3C2=O)C(=O)N1 (centres unmarked) [GT-06196, 3-(5-((1-benzhydrylpyrrolidin-3-yl)thio)-1-oxoisoindolin-2-yl)piperidine-2,6-dione]	500 to 1000 nM		A (0%≤ substrate protein remaining % ≤80%)		A (0%≤ substrate protein remaining % ≤80%)	A (0%≤ substrate protein remaining % ≤80%)
O=C1CCC(N2Cc3cc(SC4CN(Cc5cccc(-c6ccc(Cl)cc6)c5)C4)ccc3C2=O)C(=O)N1 (centres unmarked) [GT-06225, 3-(5-((1-((4′-chloro-[1,1′-biphenyl]-3-yl)methyl)azetidin-3-yl)thio)-1-oxoisoindolin-2-yl)piperidine-2,6-dione]	< 500 nM	A (0%≤ substrate protein remaining % ≤80%)	A (0%≤ substrate protein remaining % ≤80%)			
O=C1CCC(N2Cc3cc(SC4CN(Cc5ccc(-c6ccc(Cl)cc6)cc5)C4)ccc3C2=O)C(=O)N1 (centres unmarked) [GT-06226, 3-(5-((1-((4′-chloro-[1,1′-biphenyl]-4-yl)methyl)azetidin-3-yl)thio)-1-oxoisoindolin-2-yl)piperidine-2,6-dione]	500 to 1000 nM	A (0%≤ substrate protein remaining % ≤80%)		A (0%≤ substrate protein remaining % ≤80%)		
O=C1CCC(N2Cc3cc(SC4CN(CC5=C(c6ccc(F)cc6)CCCC5)C4)ccc3C2=O)C(=O)N1 (centres unmarked) [GT-06301, 3-(5-((1-((4′-fluoro-3,4,5,6-tetrahydro-[1,1′-biphenyl]-2-yl)methyl)azetidin-3-yl)thio)-1-oxoisoindolin-2-yl)piperidine-2,6-dione]	< 500 nM		A (0%≤ substrate protein remaining % ≤80%)	A (0%≤ substrate protein remaining % ≤80%)	A (0%≤ substrate protein remaining % ≤80%)	
O=C1CCC(N2Cc3cc(SC4CN(C(c5ccccc5)c5ccccn5)C4)ccc3C2=O)C(=O)N1 (centres unmarked) [GT-06518, 3-(1-oxo-5-((1-(phenyl(pyridin-2-yl)methyl)azetidin-3-yl)thio)isoindolin-2-yl)piperidine-2,6-dione]	< 500 nM		A (0%≤ substrate protein remaining % ≤80%)		A (0%≤ substrate protein remaining % ≤80%)	A (0%≤ substrate protein remaining % ≤80%)
O=C1CCC(N2Cc3cc(OC4CN(C(c5ccccc5)c5ccccn5)C4)ccc3C2=O)C(=O)N1 (centres unmarked) [GT-06559, 3-(1-oxo-5-((1-(phenyl(pyridin-2-yl)methyl)azetidin-3-yl)oxy)isoindolin-2-yl)piperidine-2,6-dione]	< 500 nM		A (0%≤ substrate protein remaining % ≤80%)	A (0%≤ substrate protein remaining % ≤80%)	A (0%≤ substrate protein remaining % ≤80%)	A (0%≤ substrate protein remaining % ≤80%)
O=C1CCC(N2Cc3cc(OC4CN(Cc5ccc(-c6ccco6)s5)C4)ccc3C2=O)C(=O)N1 (centres unmarked) [GT-06562, 3-(5-((1-((5-(furan-2-yl)thiophen-2-yl)methyl)azetidin-3-yl)oxy)-1-oxoisoindolin-2-yl)piperidine-2,6-dione]	< 500 nM	A (0%≤ substrate protein remaining % ≤80%)	A (0%≤ substrate protein remaining % ≤80%)	A (0%≤ substrate protein remaining % ≤80%)		
CC1(C)CCC(CN2CC3CC(Sc4ccc5c(c4)CN(C4CCC(=O)NC4=O)C5=O)CC3C2)=C(c2ccc(Cl)cc2)C1 (centres unmarked) [GT-06813, 3-(5-((2-((4′-chloro-5,5-dimethyl-3,4,5,6-tetrahydro-[1,1′-biphenyl]-2-yl)methyl)octahydro-cyclopenta[c]pyrrol-5-yl)thio)-1-oxoisoindolin-2-yl)piperidine-2,6-dione]	1000 to 1900 nM		A (0%≤ substrate protein remaining % ≤80%)	A (0%≤ substrate protein remaining % ≤80%)	A (0%≤ substrate protein remaining % ≤80%)	
CC1(C)CCC(C(=O)N2CCC(Oc3ccc4c(c3)CN(C3CCC(=O)NC3=O)C4=O)C2)=C(c2ccc(Cl)cc2)C1 (centres unmarked) [GT-06816, 3-(5-((1-(4′-chloro-5,5-dimethyl-3,4,5,6-tetrahydro-[1,1′-biphenyl]-2-carbonyl)pyrrolidin-3-yl)oxy)-1-oxoisoindolin-2-yl)piperidine-2,6-dione]	< 500 nM		A (0%≤ substrate protein remaining % ≤80%)	A (0%≤ substrate protein remaining % ≤80%)	A (0%≤ substrate protein remaining % ≤80%)	A (0%≤ substrate protein remaining % ≤80%)
O=C1CCC(N2Cc3cc(SC4CC5(CCN(C(c6ccccc6)c6ccccc6)CC5)C4)ccc3C2=O)C(=O)N1 (centres unmarked) [GT-06920, 3-(5-((7-benzhydryl-7-azaspiro[3.5]nonan-2-yl)thio)-1-oxoisoindolin-2-yl)piperidine-2,6-dione]	< 500 nM	A (0%≤ substrate protein remaining % ≤80%)		A (0%≤ substrate protein remaining % ≤80%)		
O=C1CCC(N2Cc3cc(SC4C[C@@H]5CN(C(=O)c6ccccc6-c6ccc(Cl)cc6)C[C@@H]5C4)ccc3C2=O)C(=O)N1 (stereo partly drawn) [GT-07024, 3-(5-(((3aR,6aS)-2-(4′-chloro-[1,1′-biphenyl]-2-carbonyl)octahydro-cyclopenta[c]pyrrol-5-yl)thio)-1-oxoisoindolin-2-yl)piperidine-2,6-dione]	< 500 nM			A (0%≤ substrate protein remaining % ≤80%)	A (0%≤ substrate protein remaining % ≤80%)	
CC1(C)CCC(C(=O)N2C[C@H]3CC(Oc4ccc5c(c4)CN(C4CCC(=O)NC4=O)C5=O)C[C@@H]3C2)=C(c2ccc(Cl)cc2)C1 (stereo partly drawn) [GT-07025, 3-(5-(((3aS,6aS)-2-(4′-chloro-5,5-dimethyl-3,4,5,6-tetrahydro-[1,1′-biphenyl]-2-carbonyl)octahydro-cyclopenta[c]pyrrol-5-yl)oxy)-1-oxoisoindolin-2-yl)piperidine-2,6-dione]	< 500 nM				A (0%≤ substrate protein remaining % ≤80%)	A (0%≤ substrate protein remaining % ≤80%)
